Laboratory results from publication PMC5470083 (Molecular imaging, 2016).
pKi: −log10 of the molar value. Like-named read-outs stand apart in the source and are kept apart here.

How the values were obtained:
[1] = target: PHF tau (Homo sapiens, UniProt P10636); assay type: binding
[2] = target: amyloid plaques (Homo sapiens, UniProt P05067); assay type: binding
[3] = target: Aβ (Homo sapiens, UniProt P05067); experiment: In vitro autoradiography binding inhibition of [11C]PiB on human AD brain slices
Sequence of Aβ (P05067 672-711 limits assumed): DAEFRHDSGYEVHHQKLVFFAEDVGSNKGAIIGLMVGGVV

[4] = target: tau (NFTs) (Homo sapiens, UniProt P10636); assay type: binding; conditions: 1 µmol/L compound; tracer 10 nmol/L [18F]T808; human AD slices; n = 3
Sequence of tau (NFTs) (P10636 623-708 limits assumed): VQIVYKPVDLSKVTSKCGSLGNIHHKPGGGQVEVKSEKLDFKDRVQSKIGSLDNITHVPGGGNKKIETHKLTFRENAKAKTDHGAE

[5] = read-out: % Block ± SD of tracer binding

Sequence of PHF tau (P10636 623-695 limits assumed): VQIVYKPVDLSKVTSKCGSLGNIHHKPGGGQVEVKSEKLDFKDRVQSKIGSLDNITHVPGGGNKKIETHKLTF
Sequence of amyloid plaques (P05067 672-711 limits assumed): as the sequence (P05067 672-711 limits assumed) above

## COc1ccc(-c2csc(NN=Cc3ccccn3)n2)cc1 [TAU5, 2-(4-(4-Methoxyphenyl)thiazol-2-yl)-1-((pyridin-2-yl)methylene)hydrazine]
[1]
  pKi: < 5.40
[2]
  pKi: < 5.36

## Cc1c(OCC(F)(F)F)ccnc1C[S+]([O-])c1nc2ccccc2[nH]1 (stereo not shown) [Lansoprazole]
[1]
  pKi: < 5.40
[2]
  pKi: < 5.36

## COc1ccc(-c2ccc3c(c2)[nH]c2ccncc23)cn1 [TAU6, 2-Methoxy-5-{5H-pyrido[4,3-b]indol-7-yl}pyridine]
[3]; [5]
  inhibition at 1 µM: 0%
[3]; read-out: Inhibition of [11C]PiB binding, summary statements
  inhibition at 1 µM: < 17%
[1]
  pKi: < 5.40
[2]
  pKi: < 5.36

## [11CH3]Nc1ccc(-c2nc3ccc(O)cc3s2)cc1 [PiB, 2-[4-([^11C]methylamino)phenyl]benzothiazol-6-ol]
[3]; 1 µmol/L compound, tracer 13 nmol/L [11C]PiB, human AD slices, n = 3
  % Block ± SD of tracer binding: 57 ± 0.0%
[1]
  pKi: 6.89

## Methyl 2-(4-nitrophenyl)benzo[d]thiazole-6-carboxylate [TAU2]
[4]
  % Block ± SD of tracer binding: 48 ± 0.0%

## COc1ccc(-c2csc(NN=Cc3ccccc3)n2)cc1 [TAU4, 1-Benzylidene-2-(4-(4-methoxyphenyl)thiazol-2-yl)hydrazine]
[1]
  pKi: < 5.40
[2]
  pKi: < 5.36

## COc1ccc(-c2ccc3c(c2)[nH]c2ccncc23)cc1 [TAU7, 7-(4-Methoxyphenyl)-5H-pyrido[4,3-b]indole]
[3]; [5]
  inhibition at 1 µM: 0%
[1]
  pKi: 7.85
[2]
  pKi: 8.31

## COc1ccc(CCN2CCC(Nc3nc4ccccc4n3Cc3ccc(F)cc3)CC2)cc1 [Astemizole]
[1]
  pKi: < 5.40
[2]
  pKi: < 5.36

## COC(=O)c1ccc(-c2ccc3c(c2)[nH]c2ccncc23)cn1 [TAU8, Methyl 5-{5H-pyrido[4,3-b]indol-7-yl}pyridine-2-carboxylate]
[3]; [5]
  inhibition at 1 µM: 0%
[1]
  pKi: < 5.40
[2]
  pKi: < 5.36

## 2-[4-(4-Fluorophenyl)phenyl]-1,3-benzothiazole [TAU3]
[4]
  % Block ± SD of tracer binding: 29 ± 0.1%
